Results: PMC12929930, “Conformational Trajectory of the Molecular Chameleon Grazoprevir From Formulation to Target‐Bound” (Chemistry (Weinheim an Der Bergstrasse, Germany), 2025)
Read-outs that look alike come from different tables or passages of the source. Blank lines part the entries; values can stand above or below the molecule they belong to.

Tests used:
[1] = cited from earlier work; for SA 3D PSA variation between solution conformations / spread in Rgyr for the solution ensembles: solution ensembles
Text: Grazoprevir (Figure 1a) is a second‐generation hepatitis C virus (HCV) nonstructural 3/4A (NS3/NS4A) protease inhibitor developed by Merck in 2012 and approved by the FDA in 2016 as part of an orally administered combination therapy with elbasvir. Like most NS3/NS4A protease inhibitors, grazoprevir is orally available despite its limited water solubility (Table S21). The potential chameleonicity of grazoprevir has not yet been structurally characterized. Determining the structures of bRo5 inhibitors like grazoprevir in various states is crucial for understanding their chame ... || For bRo5‐drugs, 3D descriptors such as the R gyr as a measure of size instead of molecular weight, and the SA 3D PSA instead of the number of hydrogen bond donors and acceptors, often provide a better view to explain their aqueous solubility and membrane permeability. Even though the exact values of the R gyr and SA 3D PSA for a single conformation might not be informative, they can give a perspective when compared for conformations between solvents or between similar compounds [6, 23]. In solution the SA 3D PSA varies by 79 Å^2 (Supporting information Figure S13) between the c ...

[2] = test system: MCDCK cell monolayers; format: in vitro ADME
Text: (§1) Solubility and Cell permeability
(§2) The thermodynamic aqueous solubility, LogD and cell permeability across MCDCK cell monolayers
(§3) Table S21. MCDCK permeability data and efflux ratios (ERs) for grazoprevir.
(§4) Solubility LogD7.4[b] PappAB (x10-6 ER[d]
[a] Determined in aqueous potassium phosphate buffer at pH 7.4. Values are means ± std from three repeats.
[b] Determined using a miniaturized shake-flask procedure. Values are means from three repeats.
[c] Papp AB: permeability in the apical-to-basolateral (AB) direction across MCDCK cell monolayers. Values are
means + std from three repeats.
[d] ER: efflux ratio (Papp BA/Papp AB).

[3] = format: physicochemical; conditions: pH 7.4
Text: as §1, §2, §3, §4
[a] Determined in aqueous potassium phosphate buffer at pH 7.4. Values are means ± std from three repeats. […]

[4] = format: physicochemical; conditions: pH 7.4; remark: listed apart in the source
Text: as §1, §2, §3
Solubility LogD7.4[b] PappAB (x10-6 ER[d] […]
[b] Determined using a miniaturized shake-flask procedure. Values are means from three repeats. […]

[5] = test system: MCDCK cell monolayers; conditions: comparison value quoted in Conclusions; not in the printed Table S21; cited from earlier work
Text: This study presents a comprehensive analysis of a macrocyclic drug's conformational journey by experimental means; from the solid state, through solution environments, to the target‐bound state. […] By determining solution‐state ensembles of grazoprevir in both polar and apolar environments—mimicking extracellular and membrane‐like conditions—and comparing these to previously repo ...

[6] = conformations assessed computationally

Structure (SMILES): C=C[C@@H]1C[C@]1(NC(=O)[C@@H]1C[C@@H](Oc2ncc(OC)c3ccc(Cl)cc23)CN1C(=O)[C@@H](NC(=O)OC(C)(C)C)C(C)(C)C)C(=O)NS(=O)(=O)C1CC1 [asunaprevir]
SA 3D PSA variation between solution conformations [1]: 88 Å^2 | spread in Rgyr for the solution ensembles [1]: 1.22 Å

ER (efflux ratio, Papp BA/Papp AB) [2]: 3.1 | PappAB [2]: 5.9 ± 0.89 x10-6 cm/s | passive membrane permeability [2]: 5.9 ×10⁻⁶ cm/s | Solubility [3]: 12.9 ± 2.6 µM | LogD7.4 [4]: 3.4
Structure (SMILES): C=C[C@@H]1C[C@]1(NC(=O)[C@@H]1C[C@@H]2CN1C(=O)[C@H](C(C)(C)C)NC(=O)O[C@@H]1C[C@H]1CCCCCc1nc3ccc(OC)cc3nc1O2)C(=O)NS(=O)(=O)C1CC1.O [grazoprevir, Grazoprevir]

Structure (SMILES): COc1ccc2c(O[C@@H]3C[C@H]4C(=O)N[C@]5(C(=O)NS(=O)(=O)C6CC6)C[C@H]5/C=C\CCCCN(C)C(=O)[C@@H]4C3)cc(-c3nc(C(C)C)cs3)nc2c1C [simeprevir]
passive membrane permeability [5]: 0.5 ×10⁻⁶ cm/s | SA 3D PSA variation between solution conformations [1]: 72 Å^2 | spread in Rgyr for the solution ensembles [1]: 1.11 Å

Structure (SMILES): Cc1cnc(C(=O)N[C@H]2CCCCC/C=C\[C@@H]3C[C@@]3(C(=O)NS(=O)(=O)C3CC3)NC(=O)[C@@H]3C[C@@H](Oc4nc5ccccc5c5ccccc45)CN3C2=O)cn1 [paritaprevir]
Rgyr range for the solution conformations (polar-to-apolar span) [1, 6]: 0.36 Å | SA 3D PSA polar-to-apolar span [1, 6]: 76 Å^2
